From ChEMBL document CHEMBL3351904, “Synthesis of new bioisosteric hemiasterlin analogues with extremely high cytotoxicity” (Bioorg Med Chem Lett, 2014)

Columns and labels:
[1] = tested on: KB; assay: Cytotoxicity against human KB cells assessed as reduction in cell growth after 3 days by MTT assay; assay type: functional, cell-based; conditions: 72 h
[2] = tested on: HepG2; assay: Cytotoxicity against human HepG2 cells assessed as reduction in cell growth after 3 days by MTT assay; assay type: functional, cell-based; conditions: HepG2, 72 h

SMILES | IC50 [1] [µM] | IC50 [2] [µM]
CCOC(=O)/C(C)=C/[C@H](C(C)C)N(C)C(=O)[C@@H](NC(=O)[C@@H](NC)C(C)(C)c1ccc(Br)cc1)C(C)(C)C | 0.012 | 0.006
CCOC(=O)/C(C)=C/[C@H](C(C)C)N(C)C(=O)[C@@H](NC(=O)[C@H](NC)C(C)(C)c1ccc(Br)cc1)C(C)(C)C | 0.172 | 0.01
CCOC(=O)/C(C)=C/[C@H](C(C)C)N(C)C(=O)[C@@H](NC(=O)[C@@H](NC)C(C)(C)c1coc2ccccc12)C(C)(C)C | 0.013 | 0.011
CCOC(=O)/C(C)=C/[C@H](C(C)C)N(C)C(=O)[C@@H](NC(=O)[C@H](NC)C(C)(C)c1coc2ccccc12)C(C)(C)C | 0.76 | 0.73
CCOC(=O)/C(C)=C/[C@H](C(C)C)N(C)C(=O)[C@@H](NC(=O)[C@@H](NC)C(C)(C)c1ccc2ccccc2c1)C(C)(C)C | 0.013 | 0.013
CCOC(=O)/C(C)=C/[C@H](C(C)C)N(C)C(=O)[C@@H](NC(=O)[C@H](NC)C(C)(C)c1ccc2ccccc2c1)C(C)(C)C | 0.181 | 0.144
CN[C@H](C(=O)N[C@H](C(=O)N(C)[C@H](/C=C(\C)C(=O)O)C(C)C)C(C)(C)C)C(C)(C)c1ccc(Br)cc1 | 0.0017 | 0.0018
CN[C@@H](C(=O)N[C@H](C(=O)N(C)[C@H](/C=C(\C)C(=O)O)C(C)C)C(C)(C)C)C(C)(C)c1ccc(Br)cc1 | 0.011 | 0.013
CN[C@H](C(=O)N[C@H](C(=O)N(C)[C@H](/C=C(\C)C(=O)O)C(C)C)C(C)(C)C)C(C)(C)c1coc2ccccc12 | 0.0017 | 0.0019
CN[C@@H](C(=O)N[C@H](C(=O)N(C)[C@H](/C=C(\C)C(=O)O)C(C)C)C(C)(C)C)C(C)(C)c1coc2ccccc12 | 0.043 | 0.037
CN[C@H](C(=O)N[C@H](C(=O)N(C)[C@H](/C=C(\C)C(=O)O)C(C)C)C(C)(C)C)C(C)(C)c1ccc2ccccc2c1 | 0.0019 | 0.0019
CN[C@@H](C(=O)N[C@H](C(=O)N(C)[C@H](/C=C(\C)C(=O)O)C(C)C)C(C)(C)C)C(C)(C)c1ccc2ccccc2c1 | 0.014 | 0.034
